Assay results: patent US7691848B2, “Pyrrolobenzodiazepine arylcarboxamides and derivatives thereof as follicle-stimulating hormone receptor antagonists” (Wyeth, priority 2005, dated 2010)

Assays:
human FSH receptor = target: T1, human FSH receptor (Homo sapiens, UniProt P23945); assay: Follicle-Stimulating Hormone Receptor-Dependent Cre-Luciferase Reporter Gene Assay (CHO FSH-R 6CRE-Luc cells); assay type: cell-based; conditions: for IC50: dose-response format, in presence of EC50 of purified human FSH; for inhibition at 30 µM: 2-dose format, concentration in parentheses 30 μM, inhibition of the response to EC50 of FSH
T1 construct: host or cells: CHO-K1 (CHO FSH-R 6CRE-Luc, 1D7 cells)
T1 sequence (P23945 18-695): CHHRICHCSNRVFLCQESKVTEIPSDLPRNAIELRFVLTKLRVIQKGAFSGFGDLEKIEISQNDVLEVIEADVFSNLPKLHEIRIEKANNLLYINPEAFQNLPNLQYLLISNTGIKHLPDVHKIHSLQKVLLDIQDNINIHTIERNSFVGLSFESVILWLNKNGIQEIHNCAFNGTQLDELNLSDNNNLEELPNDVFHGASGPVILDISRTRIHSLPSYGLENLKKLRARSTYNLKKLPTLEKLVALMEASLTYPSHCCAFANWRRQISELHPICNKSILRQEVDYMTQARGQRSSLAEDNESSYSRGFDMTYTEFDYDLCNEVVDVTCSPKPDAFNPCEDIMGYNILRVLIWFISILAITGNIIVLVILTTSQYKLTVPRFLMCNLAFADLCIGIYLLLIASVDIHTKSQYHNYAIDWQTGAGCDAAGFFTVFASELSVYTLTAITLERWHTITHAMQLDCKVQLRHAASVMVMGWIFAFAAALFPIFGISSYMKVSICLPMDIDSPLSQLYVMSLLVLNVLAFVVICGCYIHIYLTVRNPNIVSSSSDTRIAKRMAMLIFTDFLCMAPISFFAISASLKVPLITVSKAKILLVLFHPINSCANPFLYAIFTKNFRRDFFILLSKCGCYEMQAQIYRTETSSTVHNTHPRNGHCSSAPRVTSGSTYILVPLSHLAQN
Excerpt: Follicle-Stimulating Hormone Receptor-Dependent Cre-Luciferase Reporter Gene Assay for the Identification of Follicle-Stimulating Hormone (FSH) Antagonists
A Chinese hamster ovarian cell line that stably produces the human FSH receptor and a luciferase reporter gene regulated by cAMP response elements was used to identify and determine the relative potencies of human FSH receptor antagonists. See for example, Kelton, C. A., et al. Mol. Cell. Endocrinol. 89:141-151 (1992), Tilly, J. L., et al. Endocrinology 131:799-806(1992), and George, S. E., et al. J. Biomol. Screening 2:235-240 (1997).
Compound Vehicle: Stock compounds were solubilized in an appropriate vehicle, e.g., phosphate buffered saline (PBS) or dimethyl sulfoxide (DMSO), at 30 mM. The compounds were subsequently diluted in DMSO to working dilutions of 1 and 20 or 30 mM for 2-dose testing format and 1 μM-10 mM for dose-response format. The DMSO dilutions were diluted 500-fold in sterile growth medium [D-MEM/F-12 (GIBCO/BRL; Grand Island, NY) containing 15 mM HEPES, 2 mM 1-glutamine, pyridoxine hydrochloride, phenol red and 5% FetalClone® II (HyClone Laboratories, Inc; Logan, Utah), 0.2% DMSO, 100 units penicillin G/ml, and 100 μg streptomycin sulfate/ml (GIBCO/BRL)]. The concentration of the vehicle in each of the compound dilutions was the same.
Positive Controls: Purified human FSH (>98%) was purchased from Cortex Biochem, Inc. (San Leandro, Calif.) and 3-[(2S*,5R*)-5-{[2-(1H-Indol-3-yl)-ethylcarbamoyl]-methyl}-4-oxo-2-(5-phenylethynyl-thiophen-2-yl)-thiazolidin-3-yl]-benzamide (an FSH-R thiazolidinone antagonist) was prepared by processes described by R. A. Scheuerman et al. in U.S. Pat. No. 6,426,357 (Affymax).
The CHO FSH-R 6CRE-Luc cells (1D7 cells) were obtained from Affymax (Palo Alto, Calif.). These Chinese hamster ovary cells (CHO-K1) were engineered genetically to stably express the recombinant human FSH receptor gene and a luciferase reporter gene under the regulation of 6 copies of a cAMP response element. The cells were plated one day prior to treatment into 96-well white opaque plates at a density of 50,000 cells/100 μl/well in growth medium. On the day of treatment, the growth medium was removed from the wells by aspiration and 50 μl of fresh growth medium was added to each well. The cells were incubated at 37° C. in a humidified incubator with 5% CO2/95% air.
The treated cells were incubated for 4 hours at 37° C. in a humidified incubator with 5% CO2/95% air. At the end of the incubation period, luciferase activity was measured by chemiluminescence using a commercially available kit (LucScreen, Tropix, Inc., Bedford, Mass.) according to the manufacturer's specifications, except that Buffer 1 and Buffer 2 were mixed together in equal proportion prior to the addition of 100 μl of the combined reagents to each well. Chemiluminescence was detected using a luminometer (EG & G Berthold Microlumat LB 96 P, Wallac, Gaithersburg, Md.) with chemiluminescence measured for 1 sec/well. Background luminescence was measured for each well prior to the addition of the LucScreen reagent.
In the 96-well 2-dose format, each compound was tested in duplicate at each dose. […] One plate was used to test a maximum of 22 compounds.
The EC50 of purified human FSH alone was tested in triplicate with each test compound. The doses chosen to test each compound were extrapolated from the initial 2-dose screening process. Along with the test compounds, purified human FSH also was tested in a dose response (0.03, 0.1, 0.3, 1, 3, 10, and 30 ng/ml) for a positive control and quality control. One plate was used for 3 test compounds and the FSH positive control.
Luciferase activity is expressed as relative light units/sec/well. Luciferase activity in antagonist was compared to the appropriate negative and positive controls. For 2-dose testing, results are reported as luciferase activity and are expressed as percent inhibition of the response obtained from the EC50 of FSH.

Compound | IC50 (human FSH receptor) | melting point | inhibition at 30 µM (human FSH receptor)
COc1cc(C(=O)N2Cc3ccc(C(=O)NCc4ccc(OC(F)(F)F)cc4)n3Cc3ccccc32)ccc1-c1ccccc1C [Example 45, 10-[(2-METHOXY-2′-METHYL-1,1′-BIPHENYL-4-YL)CARBONYL]-N-[4-(TRIFLUOROMETHOXY)BENZYL]-10,11-DIHYDRO-5H-PYRROLO[2,1-C][1,4]BENZODIAZEPINE-3-CARBOXAMIDE] | > 30 µM | 145 to 149 °C | –
COc1cc(C(=O)N2Cc3ccc(C(=O)NCc4ccc(C)cc4C)n3Cc3ccccc32)ccc1-c1ccccc1C [Example 46, N-(2,4-DIMETHYLBENZYL)-10-[(2-METHOXY-2′-METHYL-1,1′-BIPHENYL-4-YL)CARBONYL]-10,11-DIHYDRO-5H-PYRROLO[2,1-C][1,4]BENZODIAZEPINE-3-CARBOXAMIDE] | – | 161 to 162 °C | 44%
COc1ccc(CCNC(=O)c2ccc3n2Cc2ccccc2N(C(=O)c2ccc(-c4ccccc4C)c(OC)c2)C3)cc1 [Example 47, 10-[(2-METHOXY-2′-METHYL-1,1′-BIPHENYL-4-YL)CARBONYL]-N-[2-(4-METHOXYPHENYL)ETHYL]-10,11-DIHYDRO-5H-PYRROLO[2,1-C][1,4]BENZODIAZEPINE-3-CARBOXAMIDE] | > 30 µM | 193 to 195 °C | –
COc1cc(C(=O)N2Cc3ccc(C(=O)NCCc4ccc(C)cc4)n3Cc3ccccc32)ccc1-c1ccccc1C [Example 48] | > 30 µM | 190 to 192 °C | –
COc1ccc(CCNC(=O)c2ccc3n2Cc2ccccc2N(C(=O)c2ccc(-c4ccccc4C)c(OC)c2)C3)cc1OC [Example 52, N-[2-(3,4-DIMETHOXYPHENYL)ETHYL]-10-[(2-METHOXY-2′-METHYL-1,1′-BIPHENYL-4-YL)CARBONYL]-10,11-DIHYDRO-5H-PYRROLO[2,1-C][1,4]BENZODIAZEPINE-3-CARBOXAMIDE] | > 30 µM | 150 to 154 °C | –
COc1cc(C(=O)N2Cc3ccc(C(=O)NCCc4ccc(Cl)cc4)n3Cc3ccccc32)ccc1-c1ccccc1C [Example 53, N-[2-(4-CHLOROPHENYL)ETHYL]-10-[(2-METHOXY-2′-METHYL-1,1′-BIPHENYL-4-YL)CARBONYL]-10,11-DIHYDRO-5H-PYRROLO[2,1-C][1,4]BENZODIAZEPINE-3-CARBOXAMIDE] | > 30 µM | 195 to 196 °C | –
COc1cc(C(=O)N2Cc3ccc(C(=O)NCc4ccc(N(C)C)cc4)n3Cc3ccccc32)ccc1-c1ccccc1C [Example 57, N-[4-(DIMETHYLAMINO)BENZYL]-10-[(2-METHOXY-2′-METHYL-1,1′-BIPHENYL-4-YL)CARBONYL]-10,11-DIHYDRO-5H-PYRROLO[2,1-C][1,4]BENZODIAZEPINE-3-CARBOXAMIDE] | > 30 µM | 148 to 150 °C | –
COc1cc(C(=O)N2Cc3ccc(C(=O)NC4Cc5ccccc5C4)n3Cc3ccccc32)ccc1-c1ccccc1C [Example 65, N-(2,3-DIHYDRO-1H-INDEN-2-YL)-10-[(2-METHOXY-2′-METHYL-1,1′-BIPHENYL-4-YL)CARBONYL]-10,11-DIHYDRO-5H-PYRROLO[2,1-C][1,4]BENZODIAZEPINE-3-CARBOXAMIDE] | > 30 µM | 230 to 231 °C | –
COc1ccccc1-c1ccc(C(=O)N2Cc3ccc(C(=O)NCCc4ccc(O)cc4)n3Cc3ccccc32)cc1C [Example 66, N-[2-(4-HYDROXYPHENYL)ETHYL]-10-[(2′-METHOXY-2-METHYL-1,1′-BIPHENYL-4-YL)CARBONYL]-10,11-DIHYDRO-5H-PYRROLO[2,1-C][1,4]BENZODIAZEPINE-3-CARBOXAMIDE] | > 30 µM | 138 to 147 °C | –
O=C(NCCc1ccc(O)cc1)c1ccc2n1Cc1ccccc1N(C(=O)COc1ccc(Cl)cc1)C2 [Example 68, 10-[(4-CHLOROPHENOXY)ACETYL]-N-[2-(4-HYDROXYPHENYL)ETHYL]-10,11-DIHYDRO-5H-PYRROLO[2,1-C][1,4]BENZODIAZEPINE-3-CARBOXAMIDE] | 13.2 µM | 206 to 207 °C | –
O=C(NCc1ccc2c(c1)OCO2)c1ccc2n1Cc1ccccc1N(C(=O)COc1ccc(Cl)cc1)C2 [Example 69] | – | 168 to 169 °C | 21%
Cc1ccc(CNC(=O)c2ccc3n2Cc2ccccc2N(C(=O)COc2ccc(Cl)cc2)C3)cc1 [Example 70, 10-[(4-CHLOROPHENOXY)ACETYL]-N-(4-METHYLBENZYL)-10,11-DIHYDRO-5H-PYRROLO[2,1-C][1,4]BENZODIAZEPINE-3-CARBOXAMIDE] | – | 174 to 176 °C | 17%

Continued, values first:

IC50 (human FSH receptor) | melting point | inhibition at 30 µM (human FSH receptor) | Compound
> 30 µM | 154 to 159 °C | – | COc1cc(C(=O)N2Cc3ccc(C(=O)NCCCCc4ccccc4)n3Cc3ccccc32)ccc1-c1ccccc1C [Example 49, 10-[(2-METHOXY-2′-METHYL-1,1′-BIPHENYL-4-YL)CARBONYL]-N-(4-PHENYLBUTYL)-10,11-DIHYDRO-5H-PYRROLO[2,1-C][1,4]BENZODIAZEPINE-3-CARBOXAMIDE]
> 30 µM | 129 to 132 °C | – | COc1cc(C(=O)N2Cc3ccc(C(=O)NCC(c4ccccc4)c4ccccc4)n3Cc3ccccc32)ccc1-c1ccccc1C [Example 50]
– | 191 °C | 46% | COc1cc(C(=O)N2Cc3ccc(C(=O)NCCCc4ccccc4)n3Cc3ccccc32)ccc1-c1ccccc1C [Example 54, 10-[(2-METHOXY-2′-METHYL-1,1′-BIPHENYL-4-YL)CARBONYL]-N-(3-PHENYLPROPYL)-10,11-DIHYDRO-5H-PYRROLO[2,1-C][1,4]BENZODIAZEPINE-3-CARBOXAMIDE]
> 30 µM | 211 °C | – | COc1cc(C(=O)N2Cc3ccc(C(=O)NC(C)c4ccccc4)n3Cc3ccccc32)ccc1-c1ccccc1C (stereo not drawn) [Example 58]
> 30 µM | 214 °C | – | COc1cc(C(=O)N2Cc3ccc(C(=O)NCCC(c4ccccc4)c4ccccc4)n3Cc3ccccc32)ccc1-c1ccccc1C [Example 59, N-(3,3-DIPHENYLPROPYL)-10-[(2-METHOXY-2′-METHYL-1,1′-BIPHENYL-4-YL)CARBONYL]-10,11-DIHYDRO-5H-PYRROLO[2,1-C][1,4]BENZODIAZEPINE-3-CARBOXAMIDE]
> 30 µM | 214 to 215 °C | – | COc1cc(C(=O)N2Cc3ccc(C(=O)NCC(O)c4ccccc4)n3Cc3ccccc32)ccc1-c1ccccc1C (stereo not drawn) [Example 63]
